Experimental data as given in ChEMBL document CHEMBL1152560, “Substituted 2-arylbenzothiazoles as kinase inhibitors: hit-to-lead optimization” (Bioorg Med Chem, 2009).

Experiments:
[1] = molecular target: LIM domain kinase 1 (Homo sapiens) (UniProt P53667); test: Residual activity of LIMK1 at 1 uM by microplate scintillation counting
[2] = molecular target: T1, G protein-coupled receptor kinase 3 (Homo sapiens) (UniProt P35626); test: Residual activity of GRK3 at 10 uM by microplate scintillation counting
T1 sequence (whole entry): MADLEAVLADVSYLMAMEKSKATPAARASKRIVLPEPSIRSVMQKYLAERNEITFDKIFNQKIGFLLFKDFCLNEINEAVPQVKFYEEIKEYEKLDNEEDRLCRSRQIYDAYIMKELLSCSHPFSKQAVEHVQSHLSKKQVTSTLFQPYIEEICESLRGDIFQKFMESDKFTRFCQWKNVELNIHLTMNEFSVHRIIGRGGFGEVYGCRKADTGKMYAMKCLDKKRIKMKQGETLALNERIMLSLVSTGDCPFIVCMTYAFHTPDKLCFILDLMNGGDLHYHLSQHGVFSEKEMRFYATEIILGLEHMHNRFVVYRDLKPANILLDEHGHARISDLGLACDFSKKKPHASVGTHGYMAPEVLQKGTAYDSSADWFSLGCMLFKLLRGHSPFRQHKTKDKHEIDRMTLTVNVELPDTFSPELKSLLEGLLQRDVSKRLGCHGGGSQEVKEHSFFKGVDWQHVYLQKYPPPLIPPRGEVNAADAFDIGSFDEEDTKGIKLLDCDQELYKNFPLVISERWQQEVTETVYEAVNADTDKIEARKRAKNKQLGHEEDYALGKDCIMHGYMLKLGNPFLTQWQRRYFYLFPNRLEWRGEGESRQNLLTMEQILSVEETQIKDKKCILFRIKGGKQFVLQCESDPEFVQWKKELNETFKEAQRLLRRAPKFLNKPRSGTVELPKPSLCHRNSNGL

[3] = system: Epidermal growth factor receptor (Homo sapiens), P00533 [T790M]; test: Residual activity of EGFR T790M mutant at 0.1 uM by microplate scintillation counting
[4] = molecular target: T2, Mitogen-activated protein kinase 12 (Homo sapiens) (UniProt P53778); test: Residual activity of p38-gamma at 10 uM by microplate scintillation counting
T2 sequence (whole entry): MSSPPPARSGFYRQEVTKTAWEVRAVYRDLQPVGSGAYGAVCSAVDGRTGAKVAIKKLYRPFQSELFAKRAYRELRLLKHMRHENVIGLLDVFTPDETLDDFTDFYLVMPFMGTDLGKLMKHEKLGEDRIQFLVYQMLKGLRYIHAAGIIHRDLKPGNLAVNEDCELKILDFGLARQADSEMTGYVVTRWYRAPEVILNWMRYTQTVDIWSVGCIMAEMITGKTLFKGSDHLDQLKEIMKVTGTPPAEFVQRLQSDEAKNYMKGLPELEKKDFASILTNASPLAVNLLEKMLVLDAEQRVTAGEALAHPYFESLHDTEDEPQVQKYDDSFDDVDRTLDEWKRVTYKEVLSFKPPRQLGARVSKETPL

[5] = molecular target: Tyrosine-protein kinase CSK (Homo sapiens) (UniProt P41240); test: Residual activity of CSK at 0.1 uM by microplate scintillation counting
Chain of Tyrosine-protein kinase CSK (Homo sapiens) (P41240 2-450 limits assumed): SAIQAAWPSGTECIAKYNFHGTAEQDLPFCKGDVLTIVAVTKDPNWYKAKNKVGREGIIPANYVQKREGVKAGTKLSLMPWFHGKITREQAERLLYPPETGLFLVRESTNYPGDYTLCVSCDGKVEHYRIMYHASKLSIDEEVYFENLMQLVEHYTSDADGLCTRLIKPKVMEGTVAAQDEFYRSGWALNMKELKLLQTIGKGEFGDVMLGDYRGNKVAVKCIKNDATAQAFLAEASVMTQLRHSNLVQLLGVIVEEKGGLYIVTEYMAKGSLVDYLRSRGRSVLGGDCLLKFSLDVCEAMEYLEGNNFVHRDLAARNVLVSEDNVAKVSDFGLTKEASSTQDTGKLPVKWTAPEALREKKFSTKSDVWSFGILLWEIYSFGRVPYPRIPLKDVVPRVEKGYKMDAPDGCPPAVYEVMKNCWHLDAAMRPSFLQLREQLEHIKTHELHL

[6] = molecular target: T3, Calcium/calmodulin-dependent protein kinase type IV (Homo sapiens) (UniProt Q16566); test: Residual activity of CAMK4 at 1 uM by microplate scintillation counting
T3 sequence (whole entry): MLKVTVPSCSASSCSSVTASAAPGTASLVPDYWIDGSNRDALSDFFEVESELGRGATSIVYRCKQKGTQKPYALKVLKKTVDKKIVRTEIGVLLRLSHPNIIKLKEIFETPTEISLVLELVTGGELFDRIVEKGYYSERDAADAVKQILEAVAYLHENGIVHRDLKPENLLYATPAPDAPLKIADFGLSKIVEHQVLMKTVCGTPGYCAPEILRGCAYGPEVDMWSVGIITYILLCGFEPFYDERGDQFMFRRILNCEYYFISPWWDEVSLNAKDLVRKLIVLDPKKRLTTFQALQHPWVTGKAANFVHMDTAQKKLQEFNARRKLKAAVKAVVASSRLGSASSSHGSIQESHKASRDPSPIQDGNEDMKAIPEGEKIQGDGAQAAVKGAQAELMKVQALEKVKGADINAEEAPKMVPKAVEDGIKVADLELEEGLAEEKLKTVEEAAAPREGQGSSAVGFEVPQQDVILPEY

[7] = molecular target: T4, Protein kinase C zeta type (Homo sapiens) (UniProt Q05513); test: Residual activity of PKCzeta at 0.1 uM by microplate scintillation counting
T4 sequence (whole entry): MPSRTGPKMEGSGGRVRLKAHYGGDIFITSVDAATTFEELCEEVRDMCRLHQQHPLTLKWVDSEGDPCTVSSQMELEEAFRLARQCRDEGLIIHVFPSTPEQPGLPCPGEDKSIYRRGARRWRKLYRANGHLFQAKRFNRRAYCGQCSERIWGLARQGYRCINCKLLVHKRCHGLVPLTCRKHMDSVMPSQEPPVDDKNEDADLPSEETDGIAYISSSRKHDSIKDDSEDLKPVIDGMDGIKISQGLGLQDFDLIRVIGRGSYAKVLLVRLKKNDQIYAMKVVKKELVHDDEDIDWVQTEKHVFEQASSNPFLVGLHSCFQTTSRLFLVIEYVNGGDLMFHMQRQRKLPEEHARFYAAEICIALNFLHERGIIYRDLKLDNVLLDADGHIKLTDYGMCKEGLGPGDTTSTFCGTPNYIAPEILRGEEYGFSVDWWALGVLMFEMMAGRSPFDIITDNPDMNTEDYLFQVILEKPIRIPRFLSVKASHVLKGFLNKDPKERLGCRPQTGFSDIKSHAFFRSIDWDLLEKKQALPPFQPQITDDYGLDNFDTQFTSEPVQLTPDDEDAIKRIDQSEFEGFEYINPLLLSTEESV

Chain of LIM domain kinase 1 (Homo sapiens) (P53667 whole entry, looked up, the tested form may be a part): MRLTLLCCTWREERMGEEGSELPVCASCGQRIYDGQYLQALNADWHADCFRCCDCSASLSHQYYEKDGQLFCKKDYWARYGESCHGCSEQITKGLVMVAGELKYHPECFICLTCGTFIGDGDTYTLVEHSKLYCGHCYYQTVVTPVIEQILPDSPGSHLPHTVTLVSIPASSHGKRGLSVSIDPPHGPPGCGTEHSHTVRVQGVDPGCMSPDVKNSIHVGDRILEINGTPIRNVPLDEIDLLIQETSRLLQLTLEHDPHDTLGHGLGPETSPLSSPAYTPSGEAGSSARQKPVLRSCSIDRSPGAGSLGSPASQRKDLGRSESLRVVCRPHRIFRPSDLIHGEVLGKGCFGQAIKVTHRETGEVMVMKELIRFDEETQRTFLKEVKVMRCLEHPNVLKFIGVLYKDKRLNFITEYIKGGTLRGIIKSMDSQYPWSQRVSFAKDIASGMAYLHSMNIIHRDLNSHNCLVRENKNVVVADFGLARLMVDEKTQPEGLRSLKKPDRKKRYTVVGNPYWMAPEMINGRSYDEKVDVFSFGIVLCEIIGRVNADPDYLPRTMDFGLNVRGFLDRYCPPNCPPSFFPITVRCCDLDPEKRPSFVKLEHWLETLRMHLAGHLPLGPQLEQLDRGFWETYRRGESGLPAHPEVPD

Row | residual activity [1] [%] | residual activity [2] [%] | residual activity [3] [%] | residual activity [4] [%] | residual activity [5] [%] | residual activity [6] [%] | residual activity [7] [%] | Structure (SMILES)
1 | 82 | 110 | 68 | 292 | 111 | 97 | 107 | COc1cc2c(Oc3ccc(-c4nc5ccccc5s4)cc3)ncnc2cc1OCCCN1CCCC1
2 | 81 | 125 | 85 | 207 | 104 | 103 | 97 | COc1cc2c(Oc3ccc(-c4nc5ccccc5s4)cc3F)ncnc2cc1OCCCN1CCN(C)CC1
3 | 83 | 135 | 97 | 136 | 120 | 100 | 85 | COc1cc2c(Oc3ccc(-c4nc5ccccc5s4)cc3)ncnc2cc1OCCCN1CCN(C)CC1
